# From PMC5267519, “Evaluation of a Novel Renewable Hepatic Cell Model for Prediction of Clinical CYP3A4 Induction Using a Correlation-Based Relative Induction Score Approach” (Drug Metabolism and Disposition, 2017)
# Values joined by “and” are separate entries in the source; they are usually repeats but may differ in a detail not shown here. Identical values can stand only once. Like-named read-outs stand apart in the source and are kept apart here.
# Experiments:
# CYP3A4 mRNA [1] = experiment: in vitro; details: human
# Description: (§1) Cryopreserved HepatoCells were thawed quickly in a 37°C water bath and transferred to Corning Culture Medium for HepatoCells supplemented with 10% fetal bovine serum and Pen/Strep (plating medium). After the cryo-freezing media was removed by centrifugation at 150g for 10 minutes, the cell pellet was resuspended in plating media and cell count was performed with trypan blue. Cells were then seeded in a Corning BioCoat Collagen I–coated plate (500,000 cells/well in 24-well plate or 80,000 cells/well in 96-well plate), and plates were incubated in a 37°C incubator with 5% CO2. […] Cells were then returned to the incubator for overnight culture.
# (§2) Stock solutions of test compounds were prepared by dissolving each compound in DMSO and serially diluting the solutions in DMSO. Final working solutions were freshly prepared daily by diluting the 1000× stock solutions in culture medium. Three lots of HepatoCells culture were treated with eight concentrations of test compounds. Both enzymatic activity (testosterone 6β hydroxylase activity) and mRNA expression were measured as endpoints using LC-MS/MS and real-time reverse-transcription polymerase chain reaction, respectively.
# (§3) Only curve fitting with correlation coefficient (R^2) > 0.85 is accepted. At high concentrations for some compounds, if toxicity or insolubility becomes obvious, such data are excluded from curve fitting.
# CYP3A4 [2] = details: cited from earlier work
# CYP3A4 [3] = tested on: CYP3A4
# From the text: The resulting fitting equation was used to calculate predicted in vivo AUC change for each compound. […] Prediction accuracy using HepatoCells was also compared with prediction accuracy using primary human hepatocytes.
# human CAR [4] = target: T1, human CAR (Homo sapiens, UniProt Q14994); experiment: Ad-EYFP-hCAR nuclear translocation in HepatoCells; assay type: cell-based; details: 1 mM phenobarbital for 12 hours
# T1 construct: expressed in transfected cells; host or cells: primary human hepatocytes (Corning Gentest inventory), adenoviral transduction
# T1 sequence (Q14994 1-352): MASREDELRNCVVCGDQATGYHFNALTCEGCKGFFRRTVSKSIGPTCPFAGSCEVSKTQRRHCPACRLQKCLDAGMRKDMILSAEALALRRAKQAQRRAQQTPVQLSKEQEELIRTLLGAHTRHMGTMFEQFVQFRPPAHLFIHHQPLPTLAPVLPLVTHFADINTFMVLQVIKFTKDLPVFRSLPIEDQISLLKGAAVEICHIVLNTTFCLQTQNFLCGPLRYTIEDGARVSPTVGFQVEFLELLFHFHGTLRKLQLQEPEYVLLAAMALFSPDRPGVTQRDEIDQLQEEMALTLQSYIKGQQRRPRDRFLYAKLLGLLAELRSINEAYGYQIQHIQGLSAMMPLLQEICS
# Description: Previous studies have used adenoviral-enhanced yellow fluorescent protein-tagged-human CAR (Ad-EYFP-hCAR) as a tool to visualize nuclear translocation of hCAR from cytoplasm in primary human hepatocytes upon exposure to phenobarbital ([Li et al., 2009]). […] The same Ad-EYFP-hCAR fusion protein model system was used to study CAR nuclear translocation in HepatoCells. A 3-day culture of HepatoCells was transduced with Ad-EYFP-hCAR for 24 hours. Infected HepatoCells were then treated with 1 mM phenobarbital for 12 hours.
# CYP2B6 [5] = experiment: CYP2B6 induction response to prototypical inducer, enzyme activity, HepatoCells; details: human, probe bupropion 250 µM
# Description: as §1
# CYP3A4 [6] = details: for RIS Based on Enzyme Activity: RIS = (Emax × Cmax,ub)/(EC50 + Cmax,ub)
# human CAR [7] = target: T1, human CAR; experiment: Ad-EYFP-hCAR nuclear translocation in primary human hepatocytes; assay type: cell-based; details: phenobarbital treatment
# CYP3A4 mRNA [8] = details: human
# Description: as §1, §2, §3
# CYP2B6 [9] = experiment: CYP2B6 induction response to prototypical inducer, enzyme activity, primary human hepatocytes; details: cryopreserved primary human hepatocytes, probe bupropion 250 µM
# [10] = parameters: method as in Zhang et al., 2014; details: from the literature; ref Zhang et al., 2014; cited from earlier work
# PXR = tested on: PXR; parameters: method as in Luo et al. (2002); details: probenecid concentration up to 50 μM; ref Luo et al. (2002); cited from earlier work
# CYP3A4 [11] = tested on: CYP3A4; parameters: method as in Luo et al. (2002); details: probenecid concentration up to 20 μM; ref Luo et al. (2002); cited from earlier work
# CYP3A4 mRNA [12] = experiment: Concentration-dependent CYP3A4 mRNA induction in HepatoCells; details: for induction response: readout not specified; for Emax / EC50: CYP3A4 mRNA fold increase, NI = no induction observed at tested concentration; for Emax: 3 consecutive days treatment, quinidine: only observed maximum fold induction; for RIS Based on mRNA: RIS = (Emax × Cmax,ub)/(EC50 + Cmax,ub); for EC50: human, nominal concentrations
# Description: as §1, §2, §3
# [13] = Lot 2B HepatoCells, RIS calibration curve
# [14] = Lot 3A HepatoCells, RIS calibration curve
# [15] = Lot 3B HepatoCells, RIS calibration curve
smiles,measurement,setting,value
CCC1(c2ccccc2)C(=O)NC(=O)NC1=O [Phenobarbital],EC50,CYP3A4 mRNA [1],775 µM
same,Observed % AUC Change,"CYP3A4 [2]; human, in vivo",61%
same,Predicted % AUC Change Based on Activity,CYP3A4 [3],96% and 98%
same,Predicted % AUC Change Based on mRNA,CYP3A4 [3],98% and 95%
same,Predicted AUC change using HepatoCells (range of lots),CYP3A4 [3],95–98%
same,EYFP-hCAR localisation after treatment,human CAR [4],relocates to the cell nuclei
same,"fold induction at 72 h, 1 mM",CYP2B6 [5],5
same,"RIS Based on Enzyme Activity, Mean",CYP3A4 [6]; human,3.7
same,EYFP-hCAR localisation after treatment,human CAR [7],relocates to the cell nuclei
same,"RIS Based on mRNA, Mean",CYP3A4 mRNA [8],4.3
same,"fold induction at 72 h, 1 mM",CYP2B6 [9],7.8
CCCN(CCC)S(=O)(=O)c1ccc(C(=O)O)cc1 [Probenecid],Observed % AUC Change,"CYP3A4 [2]; clinical DDI, decrease in AUC of victim drug (midazolam or nonmidazolam), ref Zhang et al., 2014",20%
same,Predicted % AUC Change Based on Activity,CYP3A4 [3]; [13],96%
same,Predicted % AUC Change Based on mRNA,CYP3A4 [3]; [13],98%
same,Predicted % AUC Change Based on Activity,CYP3A4 [3]; [14],94%
same,Predicted % AUC Change Based on mRNA,CYP3A4 [3]; [14],98%
same,Predicted % AUC Change Based on Activity,CYP3A4 [3]; [15],83%
same,Predicted % AUC Change Based on mRNA,CYP3A4 [3]; [15],95%
same,unbound Cmax,[10],28 µM
same,activation of PXR,PXR,no activation of PXR
same,induction of CYP3A4 transcript or enzyme activity,CYP3A4 [11],no activation of PXR or induction of CYP3A4 transcript or enzyme activity
same,"Emax, mRNA expression (all lots)",CYP3A4 mRNA [12]; HepatoCells,more than 20 fold
same,induction response,"CYP3A4 mRNA [12]; HepatoCells, probenecid at 0.1–11 μM, significant = >twofold",did not exhibit significant induction response
same,induction response,"CYP3A4 mRNA [12]; HepatoCells, probenecid concentration higher than 33 μM",strong induction
same,Emax,CYP3A4 mRNA [12]; Lot 2B HepatoCells,25 Fold
same,RIS Based on mRNA,CYP3A4 mRNA [12]; Lot 2B,2.8
same,Emax,CYP3A4 mRNA [12]; Lot 3A HepatoCells,26 Fold
same,RIS Based on mRNA,CYP3A4 mRNA [12]; Lot 3A,3.2
same,Emax,CYP3A4 mRNA [12]; Lot 3B HepatoCells,22 Fold
same,RIS Based on mRNA,CYP3A4 mRNA [12]; Lot 3B,2.4
same,EC50,"CYP3A4 mRNA [12]; EC50, Lot 2B HepatoCells",187 µM
same,EC50,"CYP3A4 mRNA [12]; EC50, Lot 3A HepatoCells",176 µM
same,EC50,"CYP3A4 mRNA [12]; EC50, Lot 3B HepatoCells",195 µM
same,"RIS Based on mRNA, Mean","CYP3A4 mRNA [12]; mean of lots 2B, 3A, 3B",2.8
same,"Emax, enzyme activity (all lots)",CYP3A4 [6]; HepatoCells,5.9- to 11.9 fold
same,RIS Based on Enzyme Activity,CYP3A4 [6]; Lot 2B,1.5
same,RIS Based on Enzyme Activity,CYP3A4 [6]; Lot 3A,1.0
same,RIS Based on Enzyme Activity,CYP3A4 [6]; Lot 3B,0.8
same,"RIS Based on Enzyme Activity, Mean","CYP3A4 [6]; mean of lots 2B, 3A, 3B",1.1
